# Results as given in PubChem BioAssay AID1259407 (Chemical Carcinogenesis Research Information System (CCRIS), 2018).
# Calls of active or inactive are those of the source. How the calls were made is not given here.
# Tested on: CCRIS mutagenicity, Ames/micronucleus/aberration tests
# Assay: CCRIS mutagenicity studies
# [1] = Test System: AMES SALMONELLA TYPHIMURIUM, Strain/Indicator: TA98(NR), Metabolic Activation: NONE, Method: PREINCUBATION
# [2] = Test System: AMES SALMONELLA TYPHIMURIUM, Strain/Indicator: TA98, Metabolic Activation: NONE, Method: PREINCUBATION
# [3] = Test System: AMES SALMONELLA TYPHIMURIUM, Strain/Indicator: TA100, Metabolic Activation: NONE, Method: PREINCUBATION
structure (smiles),measurement,setting,value
O=[N+]([O-])c1ccc(CNc2ncnc3c2ncn3[C@@H]2O[C@H](CO)[C@@H](O)[C@H]2O)cc1,mutagenic call,"Test System: AMES SALMONELLA TYPHIMURIUM, Strain/Indicator: TA98(1,8-DNP), Metabolic Activation: NONE, Method: PREINCUBATION",inactive; negative
same,mutagenic call,"Test System: AMES SALMONELLA TYPHIMURIUM, Strain/Indicator: TA98(1,8-DNP), Metabolic Activation: RAT, LIVER, S-9, PCB, Method: PREINCUBATION",inactive; negative
same,mutagenic call,[1],inactive; negative
same,mutagenic call,"Test System: AMES SALMONELLA TYPHIMURIUM, Strain/Indicator: TA98(NR), Metabolic Activation: RAT, LIVER, S-9, PCB, Method: PREINCUBATION",inactive; negative
same,mutagenic call,[2],inactive; negative
same,mutagenic call,"Test System: AMES SALMONELLA TYPHIMURIUM, Strain/Indicator: TA98, Metabolic Activation: RAT, LIVER, S-9, PCB, Method: PREINCUBATION",inactive; negative
same,mutagenic call,"Test System: AMES SALMONELLA TYPHIMURIUM, Strain/Indicator: TA100(1,8-DNP), Metabolic Activation: NONE, Method: PREINCUBATION",inactive; negative
same,mutagenic call,"Test System: AMES SALMONELLA TYPHIMURIUM, Strain/Indicator: TA100(1,8-DNP), Metabolic Activation: RAT, LIVER, S-9, PCB, Method: PREINCUBATION",inactive; negative
same,mutagenic call,"Test System: AMES SALMONELLA TYPHIMURIUM, Strain/Indicator: TA100(NR), Metabolic Activation: NONE, Method: PREINCUBATION",inactive; negative
same,mutagenic call,"Test System: AMES SALMONELLA TYPHIMURIUM, Strain/Indicator: TA100(NR), Metabolic Activation: RAT, LIVER, S-9, PCB, Method: PREINCUBATION",inactive; negative
same,mutagenic call,[3],inactive; negative
same,mutagenic call,"Test System: AMES SALMONELLA TYPHIMURIUM, Strain/Indicator: TA100, Metabolic Activation: RAT, LIVER, S-9, PCB, Method: PREINCUBATION",inactive; negative
same,mutagenic call,"Test System: AMES SALMONELLA TYPHIMURIUM, Strain/Indicator: YG1020, Metabolic Activation: NONE, Method: PREINCUBATION",active; positive
same,mutagenic call,"Test System: AMES SALMONELLA TYPHIMURIUM, Strain/Indicator: YG1020, Metabolic Activation: RAT, LIVER, S-9, PCB, Method: PREINCUBATION",inactive; negative
same,mutagenic call,"Test System: AMES SALMONELLA TYPHIMURIUM, Strain/Indicator: YG1021, Metabolic Activation: NONE, Method: PREINCUBATION",active; positive
same,mutagenic call,"Test System: AMES SALMONELLA TYPHIMURIUM, Strain/Indicator: YG1021, Metabolic Activation: RAT, LIVER, S-9, PCB, Method: PREINCUBATION",active; positive
same,mutagenic call,"Test System: AMES SALMONELLA TYPHIMURIUM, Strain/Indicator: YG1024, Metabolic Activation: NONE, Method: PREINCUBATION",active; positive
same,mutagenic call,"Test System: AMES SALMONELLA TYPHIMURIUM, Strain/Indicator: YG1024, Metabolic Activation: RAT, LIVER, S-9, PCB, Method: PREINCUBATION",inactive; negative
same,mutagenic call,"Test System: AMES SALMONELLA TYPHIMURIUM, Strain/Indicator: YG1025, Metabolic Activation: NONE, Method: PREINCUBATION",inactive; negative
same,mutagenic call,"Test System: AMES SALMONELLA TYPHIMURIUM, Strain/Indicator: YG1025, Metabolic Activation: RAT, LIVER, S-9, PCB, Method: PREINCUBATION",inactive; negative
same,mutagenic call,"Test System: AMES SALMONELLA TYPHIMURIUM, Strain/Indicator: YG1026, Metabolic Activation: NONE, Method: PREINCUBATION",inactive; negative
same,mutagenic call,"Test System: AMES SALMONELLA TYPHIMURIUM, Strain/Indicator: YG1026, Metabolic Activation: RAT, LIVER, S-9, PCB, Method: PREINCUBATION",inactive; negative
same,mutagenic call,"Test System: AMES SALMONELLA TYPHIMURIUM, Strain/Indicator: YG1029, Metabolic Activation: NONE, Method: PREINCUBATION",inactive; negative
same,mutagenic call,"Test System: AMES SALMONELLA TYPHIMURIUM, Strain/Indicator: YG1029, Metabolic Activation: RAT, LIVER, S-9, PCB, Method: PREINCUBATION",inactive; negative
O=c1oc2ccc([N+](=O)[O-])c3ccc4cccc1c4c23,mutagenic call,"Test System: AMES SALMONELLA TYPHIMURIUM, Strain/Indicator: TA98(1,8-DNP6), Metabolic Activation: NONE, Method: PREINCUBATION",active; positive
same,mutagenic call,"Test System: AMES SALMONELLA TYPHIMURIUM, Strain/Indicator: TA98(1,8-DNP6), Metabolic Activation: RAT, LIVER, S-9, AROCLOR 1254, Method: PREINCUBATION",inactive; negative
same,mutagenic call,[1],active; positive
same,mutagenic call,"Test System: AMES SALMONELLA TYPHIMURIUM, Strain/Indicator: TA98(NR), Metabolic Activation: RAT, LIVER, S-9, AROCLOR 1254, Method: PREINCUBATION",active; positive
same,mutagenic call,[2],active; positive
same,mutagenic call,"Test System: AMES SALMONELLA TYPHIMURIUM, Strain/Indicator: TA98, Metabolic Activation: RAT, LIVER, S-9, AROCLOR 1254, Method: PREINCUBATION",active; positive
same,mutagenic call,[3],active; positive
same,mutagenic call,"Test System: AMES SALMONELLA TYPHIMURIUM, Strain/Indicator: TA100, Metabolic Activation: RAT, LIVER, S-9, AROCLOR 1254, Method: PREINCUBATION",active; positive
Cc1cc(O)c2c(c1)C(=O)c1cc(O)cc(O)c1C2=O,mutagenic call,"Test System: AMES SALMONELLA TYPHIMURIUM, Strain/Indicator: TA97, Metabolic Activation: NONE, Method: STANDARD PLATE",inactive; negative
same,mutagenic call,"Test System: AMES SALMONELLA TYPHIMURIUM, Strain/Indicator: TA97, Metabolic Activation: RAT, LIVER, S-9, AROCLOR 1254, Method: STANDARD PLATE",active; positive
same,mutagenic call,"Test System: AMES SALMONELLA TYPHIMURIUM, Strain/Indicator: TA97A, Metabolic Activation: NONE, Method: STANDARD PLATE",inactive; negative
same,mutagenic call,"Test System: AMES SALMONELLA TYPHIMURIUM, Strain/Indicator: TA97A, Metabolic Activation: RAT, LIVER, S-9, AROCLOR 1254, Method: STANDARD PLATE",active; positive
same,mutagenic call,"Test System: AMES SALMONELLA TYPHIMURIUM, Strain/Indicator: TA98, Metabolic Activation: HAMSTER, LIVER, S-9, AROCLOR 1254 (30%), Method: PREINCUBATION",inactive; negative
same,mutagenic call,[2],inactive; negative
same,mutagenic call,"Test System: AMES SALMONELLA TYPHIMURIUM, Strain/Indicator: TA98, Metabolic Activation: RAT LIVER S-9, AROCLOR 1254 (30%), Method: PREINCUBATION",inactive; negative
same,mutagenic call,"Test System: AMES SALMONELLA TYPHIMURIUM, Strain/Indicator: TA100, Metabolic Activation: HAMSTER LIVER S-9, AROCLOR 1254 (10% OR 30%), Method: PREINCUBATION",active; positive
same,mutagenic call,[3],inactive; negative
same,mutagenic call,"Test System: AMES SALMONELLA TYPHIMURIUM, Strain/Indicator: TA100, Metabolic Activation: RAT LIVER S-9, AROCLOR 1254 (5% OR 30%), Method: PREINCUBATION",active; positive
same,mutagenic call,"Test System: AMES SALMONELLA TYPHIMURIUM, Strain/Indicator: TA102, Metabolic Activation: NONE, Method: STANDARD PLATE",inactive; negative
same,mutagenic call,"Test System: AMES SALMONELLA TYPHIMURIUM, Strain/Indicator: TA102, Metabolic Activation: S-9, Method: STANDARD PLATE",active; positive
same,mutagenic call,"Test System: AMES SALMONELLA TYPHIMURIUM, Strain/Indicator: TA1535, Metabolic Activation: NONE, Method: STANDARD PLATE",inactive; negative
same,mutagenic call,"Test System: AMES SALMONELLA TYPHIMURIUM, Strain/Indicator: TA1535, Metabolic Activation: RAT, LIVER, S-9, AROCLOR 1254, Method: STANDARD PLATE",inactive; negative
same,mutagenic call,"Test System: AMES SALMONELLA TYPHIMURIUM, Strain/Indicator: TA1537, Metabolic Activation: RAT, LIVER, S-9, AROCLOR 1254, Method: STANDARD PLATE",active; positive
same,mutagenic call,"Test System: AMES SALMONELLA TYPHIMURIUM, Strain/Indicator: TA1537, Metabolic Activation: RAT, LIVER, S-9, PCB, Method: STANDARD PLATE",active; positive
same,mutagenic call,"Test System: AMES SALMONELLA TYPHIMURIUM, Strain/Indicator: TA1537, Metabolic Activation: RAT, LIVER, S-9, Method: PREINCUBATION",active; positive
same,mutagenic call,"Test System: AMES SALMONELLA TYPHIMURIUM, Strain/Indicator: TA1538, Metabolic Activation: NONE, Method: STANDARD PLATE",inactive; negative
same,mutagenic call,"Test System: AMES SALMONELLA TYPHIMURIUM, Strain/Indicator: TA1538, Metabolic Activation: RAT, LIVER, S-9, AROCLOR 1254, Method: STANDARD PLATE",inactive; negative
same,mutagenic call,"Test System: AMES SALMONELLA TYPHIMURIUM, Strain/Indicator: TA2638, Metabolic Activation: S-9, Method: STANDARD PLATE",active; positive
same,mutagenic call,"Test System: CHINESE HAMSTER V-79, Strain/Indicator: V-79 (HGPRT)/6-THIOGUANINE, Metabolic Activation: NONE, Method: SUSPENSION/PLATE",inactive; negative
same,mutagenic call,"Test System: CHINESE HAMSTER V-79, Strain/Indicator: V-79 (HGPRT)/6-THIOGUANINE, Metabolic Activation: RAT, LIVER, S-9, AROCLOR 1254, Method: SUSPENSION/PLATE",inactive; negative
same,mutagenic call,"Test System: CHINESE HAMSTER V-79, Strain/Indicator: V-79/8-AZAGUANINE, Metabolic Activation: NONE, Method: STANDARD PLATE",active; positive
same,mutagenic call,"Test System: E. COLI, Strain/Indicator: WP2 (PKM101), Metabolic Activation: S-9, Method: STANDARD PLATE",inactive; negative
same,mutagenic call,"Test System: E. COLI, Strain/Indicator: WP2 UVRA (PKM101), Metabolic Activation: S-9, Method: STANDARD PLATE",inactive; negative
same,mutagenic call,"Test System: UDS RODENT HEPATOCYTES, Strain/Indicator: THY INCORP (NON-S-PHASE), Metabolic Activation: NONE, Method: AUTORADIOGRAPHY",active; positive
